From US20230295260A1, “GLP RECEPTOR AGONISTS” (HEPTARES THERAPEUTICS LIMITED, priority 2020, published 2023) come the findings set out here.

Each structure is given as a SMILES string. Non-standard residues stand in square brackets, D forms with d. Residues, ends and D or L forms follow the SMILES beside them. ξ: configuration not given here. *: point of attachment. Malonyl(2,2-Me2,histaminyl) = CC(C)(C(=O)NCCc1cnc[nH]1)C(=O)*; Ala(1H-tetrazol-5-yl) = N[C@@H](Cc1nnn[nH]1)C(=O)O; αMeL = CC(C)C[C@](C)(N)C(=O)O; ξαMeD = CC(N)(CC(=O)O)C(=O)O; Nle = CCCC[C@H](N)C(=O)O; Aib = CC(C)(N)C(=O)O; Alloc = C=CCOC(=O)* Where only a bound is given, the exact number is not on record here.

One assay addresses T1, human GLP1 receptor (Homo sapiens, UniProt P43220).
T1 construct: expressed in transfected cells; host or cells: HEK cells, BacMam virus transduction
Briefly: cAMP accumulation assay (HTRF), functional agonism of human GLP1 receptor in HEK cells. It counts as cell-based. The note with it: HEK cells, human GLP1 receptor BacMam, 45 min 37° C.; for Emax: HEK293, read-out: Human GLP-1R agonist cAMP Emax; for EC50: read-out: Human GLP-1R agonist cAMP pEC50 (converted).

In the next assay the target is T2, mouse GLP2 receptor (Mus musculus, UniProt Q5IXF8).
T2 construct: expressed in transfected cells; host or cells: HEK cells, transient transfection with GeneJuice
T2 sequence (Q5IXF8 1-512): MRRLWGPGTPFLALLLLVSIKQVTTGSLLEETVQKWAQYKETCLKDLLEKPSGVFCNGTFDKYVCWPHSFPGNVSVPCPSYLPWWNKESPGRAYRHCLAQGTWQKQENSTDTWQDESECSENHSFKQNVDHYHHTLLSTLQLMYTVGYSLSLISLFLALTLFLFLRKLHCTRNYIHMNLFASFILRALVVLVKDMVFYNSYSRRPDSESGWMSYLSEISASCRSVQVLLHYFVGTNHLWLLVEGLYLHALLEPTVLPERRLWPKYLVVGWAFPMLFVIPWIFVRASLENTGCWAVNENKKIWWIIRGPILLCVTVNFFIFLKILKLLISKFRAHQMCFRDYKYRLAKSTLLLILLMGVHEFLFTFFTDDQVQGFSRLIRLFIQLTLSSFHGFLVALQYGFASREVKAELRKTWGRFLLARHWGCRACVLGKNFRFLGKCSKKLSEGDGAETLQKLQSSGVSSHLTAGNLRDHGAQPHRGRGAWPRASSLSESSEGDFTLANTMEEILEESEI
The assay is described as follows: cAMP accumulation assay (HTRF), functional agonism of mouse GLP2 receptor in HEK cells. It counts as cell-based. The note with it: HEK cells transiently transfected, 45 min 37° C.; for Emax: HEK293, read-out: Mouse GLP-2R agonist cAMP Emax; for EC50: read-out: Mouse GLP-2R agonist cAMP pEC50 (converted).

For the next assay, the target named is T3, human GLP2 receptor (Homo sapiens, UniProt O95838).
T3 sequence (O95838 1-553): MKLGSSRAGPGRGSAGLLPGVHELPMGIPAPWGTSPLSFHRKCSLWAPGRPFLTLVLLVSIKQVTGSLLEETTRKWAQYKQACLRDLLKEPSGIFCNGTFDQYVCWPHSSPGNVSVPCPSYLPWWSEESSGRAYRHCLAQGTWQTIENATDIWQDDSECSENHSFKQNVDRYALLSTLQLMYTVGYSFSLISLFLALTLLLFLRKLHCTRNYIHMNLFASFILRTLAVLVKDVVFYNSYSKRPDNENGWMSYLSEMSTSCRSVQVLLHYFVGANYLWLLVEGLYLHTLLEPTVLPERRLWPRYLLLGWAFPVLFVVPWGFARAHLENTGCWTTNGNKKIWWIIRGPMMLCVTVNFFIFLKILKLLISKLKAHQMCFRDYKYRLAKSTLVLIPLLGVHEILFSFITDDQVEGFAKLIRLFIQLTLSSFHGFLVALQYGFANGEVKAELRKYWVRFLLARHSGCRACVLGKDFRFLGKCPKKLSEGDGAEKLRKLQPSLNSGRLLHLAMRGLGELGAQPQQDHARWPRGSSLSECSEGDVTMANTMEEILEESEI
The assay is described as follows: cAMP accumulation assay (HTRF), functional agonism of human GLP2 receptor in HEK cells.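 On all read-outs here: HEK cells transduced via BacMam to express human GLP2 receptor, agonist-stimulated cAMP measured by HTRF after 45 min at 37 °C in HBSS with 0.5 mM IBMX.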 The note with it: for Emax: HEK293, read-out: Human GLP-2R agonist cAMP Emax.

For the next assay, the target named is T4, mouse GLP1 receptor (Mus musculus, UniProt O35659).
T4 construct: expressed in transfected cells; host or cells: HEK cells, transient transfection with GeneJuice
T4 sequence (O35659 22-463): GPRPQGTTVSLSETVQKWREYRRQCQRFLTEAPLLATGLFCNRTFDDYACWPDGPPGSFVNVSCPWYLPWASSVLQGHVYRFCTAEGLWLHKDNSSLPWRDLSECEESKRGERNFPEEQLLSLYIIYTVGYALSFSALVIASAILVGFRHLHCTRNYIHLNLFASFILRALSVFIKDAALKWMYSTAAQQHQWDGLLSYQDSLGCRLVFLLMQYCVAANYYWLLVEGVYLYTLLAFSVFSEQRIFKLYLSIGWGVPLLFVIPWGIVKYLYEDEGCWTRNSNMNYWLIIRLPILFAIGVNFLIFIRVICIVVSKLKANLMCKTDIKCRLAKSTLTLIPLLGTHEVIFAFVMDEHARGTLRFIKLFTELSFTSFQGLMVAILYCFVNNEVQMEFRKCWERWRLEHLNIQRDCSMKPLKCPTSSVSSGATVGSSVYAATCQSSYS
The assay is described as follows: cAMP accumulation assay (HTRF), functional agonism of mouse GLP1 receptor in HEK cells. It counts as cell-based. The note with it: HEK cells transiently transfected, 45 min 37° C.; for Emax: HEK293, read-out: Mouse GLP-1 R agonist cAMP Emax; for EC50: read-out: Mouse GLP-1 R agonist cAMP pEC50 (converted).

Assay [1] concerns C57BL/6J male mice. Briefly: Effect on intestinal wet weight in normal mice (FIG. 1). It counts as in vivo, mouse. The note with it: once daily sc 270 nmol/kg (liraglutide iv 200 ug/kg), sacrificed on day 3, vs. vehicle. As to the method: Mice were sacrificed on day 3 and the wet weight of the small intestine was quantified. GLP-2 active peptides show significant enhancement of the small intestinal weight. […] N=6 animals / grp. *p < 0.05 vs. vehicle
C57BL/6J male mice (Charles River, Italy, ~8 weeks) are randomly allocated to the treatment group based on the baseline body weights. Animals are given free access to food and water during the whole duration of the study. Mice are dosed daily with the test compounds via subcutaneous injection. […] The abdominal cavity will be opened and the intestinal tissue is excised carefully to avoid perforation. Tissue from the upper small intestine (15 cm segment from the pylorus) is collected. The bowel is cleaned by flushing through with ice cold PBS to remove any feces.

The subject of assay [2] is C57BL/6J male mice. The assay is described as follows: Dose response effect on intestinal mass in normal mice, 7 day dosing (FIG. 2). It counts as in vivo, mouse. The note with it: daily sc. As to the method: The enhancement of the small bowel wet weight (over vehicle) is plotted as a function of the peptide dose. […] N=6 animals I grp.
C57BL/6J male mice (Charles River, Italy, ~8 weeks) are randomly allocated to the treatment group based on the baseline body weights. Animals are given free access to food and water during the whole duration of the study. Mice are dosed daily with the vehicle or test peptides via subcutaneous injection. On day 7, animals are sacrificed and segments from the upper small intestine (15 cm segment from the pylorus) are collected and weighed (see Example B).

T1 sequence (P43220 24-463): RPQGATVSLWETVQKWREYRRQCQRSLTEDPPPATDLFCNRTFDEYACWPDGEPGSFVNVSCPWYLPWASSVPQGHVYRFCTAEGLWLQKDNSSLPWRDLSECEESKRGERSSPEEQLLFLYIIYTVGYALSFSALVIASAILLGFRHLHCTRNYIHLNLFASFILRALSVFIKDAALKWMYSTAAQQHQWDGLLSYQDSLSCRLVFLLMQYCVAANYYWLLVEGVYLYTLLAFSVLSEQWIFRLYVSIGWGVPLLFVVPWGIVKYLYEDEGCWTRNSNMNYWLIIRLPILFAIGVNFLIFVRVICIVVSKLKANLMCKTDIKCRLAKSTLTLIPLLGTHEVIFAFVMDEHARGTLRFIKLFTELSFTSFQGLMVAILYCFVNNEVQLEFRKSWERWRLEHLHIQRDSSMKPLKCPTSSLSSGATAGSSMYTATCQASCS
Protocol for human GLP1 receptor: The functional activity of the peptides were assessed using a HTRF cAMP assay. pEC50 values are quoted.
cAMP production upon agonist stimulation of human GLP2 or GLP1 receptor was assessed utilizing HiRange cAMP kit (Cisbio). In brief, HEK cells were infected with either human GLP2 or GLP1 receptor BacMam virus for 24 hours and frozen for later use in the assay. […] Cells were prepared in the assay buffer (HBSS (Lonza) supplemented with 0.5 mM IBMX (Tocris)). After 45 min incubation at 37° C., the reaction was stopped by addition of the HTRF detection reagents in the lysis buffer provided in the kit.

Consider `CC[C@H](C)[C@H](NC(=O)[C@H](Cc1ccccc1)NC(=O)[C@H](CC(=O)O)NC(=O)[C@H](CCCNC(=N)N)NC(=O)[C@H](C)NC(=O)[C@H](C)NC(=O)[C@H](CC(C)C)NC(=O)[C@H](CC(N)=O)NC(=O)[C@H](CC(=O)O)NC(=O)[C@H](CC(C)C)NC(=O)[C@@H](NC(=O)[C@@H](NC(=O)[C@H](CC(N)=O)NC(=O)[C@H](CCSC)NC(=O)[C@H](CCC(=O)O)NC(=O)[C@H](CC(=O)O)NC(=O)[C@H](CO)NC(=O)[C@H](Cc1ccccc1)NC(=O)[C@H](CO)NC(=O)CNC(=O)[C@H](CC(=O)O)NC(=O)CNC(=O)[C@@H](N)Cc1c[nH]cn1)[C@@H](C)O)[C@@H](C)CC)C(=O)N[C@@H](CC(N)=O)C(=O)N[C@@H](Cc1c[nH]c2ccccc12)C(=O)N[C@@H](CC(C)C)C(=O)N[C@H](C(=O)N[C@@H](CCC(N)=O)C(=O)N[C@H](C(=O)N[C@@H](CCCCN)C(=O)N[C@H](C(=O)N[C@H](C(=O)N[C@@H](CC(=O)O)C(=O)O)[C@@H](C)O)[C@@H](C)CC)[C@@H](C)O)[C@@H](C)CC` [Teduglutide, reference compound], for which the maximal effect (Emax) at human GLP1 receptor was found to be 60.3%; at mouse GLP2 receptor, 100%; at human GLP2 receptor, 101%; on mouse GLP1 receptor it was 1%. In addition, the EC50 is 316 nM on human GLP1 receptor, 0.00794 nM on mouse GLP2 receptor and > 794 nM on mouse GLP1 receptor. The “wet weight of the small intestine” value with C57BL/6J male mice [1] is reported as “Significant enhancement of intestinal wet weight”. For the same molecule, in the assay on C57BL/6J male mice [2], the “enhancement of small bowel wet weight (over vehicle) as a function of dose” value was “dose dependent enhancements in the wet weight of the small intestine”.

`C=CCOC(=O)NCCCC[C@H](NC(=O)[C@H](C)NC(=O)[C@H](C)NC(=O)[C@H](CCCCNC(=O)OCC=C)NC(=O)[C@H](CC(C)C)NC(=O)[C@H](CC(=O)O)NC(=O)[C@H](CC(C)C)NC(=O)C(C)(C)NC(=O)[C@@H](NC(=O)[C@@H](Cc1ccccc1)NC(=O)[C@H](CCCC)NC(=O)[C@H](CCC(=O)O)NC(=O)[C@H](CC(=O)O)NC(=O)[C@H](CO)NC(=O)[C@H](Cc1ccccc1)NC(=O)[C@H](CO)NC(=O)CNC(=O)[C@H](Cc1nn[nH]n1)NC(=O)C(C)(C)C(=O)NCCc1c[nH]cn1)[C@@H](C)O)C(=O)N[C@@H](CC(=O)O)C(=O)N[C@@H](Cc1ccccc1)C(=O)N[C@H](C(=O)N[C@@H](CC(N)=O)C(=O)N[C@@H](Cc1c[nH]c2ccccc12)C(=O)N[C@@H](CC(C)C)C(=O)N[C@H](C(=O)N[C@@H](CCC(N)=O)C(=O)N[C@H](C(=O)N[C@@H](CCCCN)C(=O)N[C@H](C(=O)N[C@H](C(=O)N[C@@H](CC(=O)O)C(N)=O)[C@@H](C)O)[C@@H](C)CC)[C@@H](C)O)[C@@H](C)CC)[C@@H](C)CC` [Example 15] ({Malonyl(2,2-Me2,histaminyl)}-[Ala(1H-tetrazol-5-yl)]GSFSDE[Nle][dF]T[Aib]LDLK(Alloc)AAK(Alloc)DFINWLIQTKITD-NH2): the Emax was 95.1% at human GLP1 receptor, 99.9% on mouse GLP2 receptor, 101% at human GLP2 receptor and 94.4% on mouse GLP1 receptor. Also, the EC50 is 5.01 nM at human GLP1 receptor, 1.58 nM at mouse GLP2 receptor, 0.00794 nM at human GLP2 receptor and 1.58 nM at mouse GLP1 receptor.

As to `C=CCOC(=O)NCCCC[C@H](NC(=O)[C@H](CC(C)C)NC(=O)[C@H](CC(=O)O)NC(=O)[C@H](CC(C)C)NC(=O)[C@@H](NC(=O)[C@@H](NC(=O)[C@@H](Cc1ccccc1)NC(=O)[C@H](CCCC)NC(=O)[C@H](CCC(=O)O)NC(=O)[C@H](CC(=O)O)NC(=O)[C@H](CO)NC(=O)[C@H](Cc1ccccc1)NC(=O)[C@H](CO)NC(=O)CNC(=O)[C@H](Cc1nn[nH]n1)NC(=O)C(C)(C)C(=O)NCCc1c[nH]cn1)[C@@H](C)O)[C@@H](C)CC)C(=O)N[C@@H](C)C(=O)N[C@@H](C)C(=O)N[C@@H](CCCCN)C(=O)N[C@@H](CC(=O)O)C(=O)N[C@@H](Cc1ccccc1)C(=O)N[C@H](C(=O)N[C@@H](CC(N)=O)C(=O)N[C@@H](Cc1c[nH]c2ccccc12)C(=O)N[C@@H](CC(C)C)C(=O)N[C@H](C(=O)N[C@@H](CCC(N)=O)C(=O)N[C@H](C(=O)N[C@@H](CCCCN)C(=O)N[C@@](C)(CC(C)C)C(=O)N[C@H](C(=O)N[C@@H](CC(=O)O)C(N)=O)[C@@H](C)O)[C@@H](C)O)[C@@H](C)CC)[C@@H](C)CC` [Example 13] ({Malonyl(2,2-Me2,histaminyl)}-[Ala(1H-tetrazol-5-yl)]GSFSDE[Nle][dF]TILDLK(Alloc)AAKDFINWLIQTK[αMeL]TD-NH2), the maximal response (Emax) at human GLP1 receptor was 93.4%; at mouse GLP2 receptor, 101%; at human GLP2 receptor it was 100%; on mouse GLP1 receptor, 92.3%. Further, the EC50 at human GLP1 receptor was 2.51 nM; at mouse GLP2 receptor, 3.98 nM; on human GLP2 receptor, 0.00794 nM; at mouse GLP1 receptor, 3.16 nM.

As for `C=CCOC(=O)NCCCC[C@H](NC(=O)[C@H](CC(C)C)NC(=O)[C@H](CC(=O)O)NC(=O)[C@H](CC(C)C)NC(=O)[C@@H](NC(=O)[C@@H](NC(=O)[C@@H](Cc1ccccc1)NC(=O)[C@H](CCCC)NC(=O)[C@H](CCC(=O)O)NC(=O)[C@H](CC(=O)O)NC(=O)[C@H](CO)NC(=O)[C@H](Cc1ccccc1)NC(=O)[C@H](CO)NC(=O)CNC(=O)[C@H](Cc1nn[nH]n1)NC(=O)C(C)(C)C(=O)NCCc1c[nH]cn1)[C@@H](C)O)[C@@H](C)CC)C(=O)N[C@@H](C)C(=O)N[C@@H](C)C(=O)N[C@@H](CCCCN)C(=O)N[C@@H](CC(=O)O)C(=O)N[C@@H](Cc1ccccc1)C(=O)N[C@H](C(=O)N[C@@H](CC(N)=O)C(=O)N[C@@H](Cc1c[nH]c2ccccc12)C(=O)N[C@@H](CC(C)C)C(=O)N[C@H](C(=O)N[C@@H](CCC(N)=O)C(=O)N[C@H](C(=O)N[C@@H](CCCCN)C(=O)N[C@H](C(=O)N[C@H](C(=O)NC(C)(CC(=O)O)C(N)=O)[C@@H](C)O)[C@@H](C)CC)[C@@H](C)O)[C@@H](C)CC)[C@@H](C)CC` (some centres unmarked) [Example 20] ({Malonyl(2,2-Me2,histaminyl)}-[Ala(1H-tetrazol-5-yl)]GSFSDE[Nle][dF]TILDLK(Alloc)AAKDFINWLIQTKIT[ξαMeD]-NH2; C-terminus assumed), the Emax at human GLP1 receptor came to 94%; on mouse GLP2 receptor, 100%; on human GLP2 receptor, 103%; at mouse GLP1 receptor, 92.2%.
